≈ marks a conversion by molar mass, not a printed value. Read-outs that look alike come from different tables or passages of the source. Positions of bridges follow the written chain, without caps; N, C: chain ends. Non-standard residues stand in square brackets, D forms with d. Residues, ends and D or L forms follow the SMILES beside them. Dab = NCC[C@H](N)C(=O)O
B1: PD91.1.1: Setaria viridis wild-type defensin SEQ ID NO: 578 with N-terminal alanine, expressed in Pichia pastoris (protein, listed as Setaria viridis)
chain: AYMCTTQNRFFHGRCVNNLNCASSCVHGRLGTGGHCATRKRSAADPGVDIDWVWNRRICVCVFQC
modifications: N-terminal alanine
B2: PD97.1.1: Rubus chingii wild-type defensin SEQ ID NO: 608 with N-terminal alanine, expressed in Pichia pastoris (protein, listed as Rubus chingii)
chain: GACPLVSKRSKTWSGFCGSSNNCNKQCRSWESAQHGACHNTYKTVLGVKVISGRACFCYFCKKHT
modifications: N-terminal alanine
B3: PD127.1.1: wild-type defensin-like protein SEQ ID NO: 732 with N-terminal alanine, expressed in Pichia pastoris (protein, listed as Potentilla micrantha)
chain: GACPLVQKRSKTWSGFCGSSNNCDKQCRTWEKAKHGACHATGDLKGTPRLKLRSCHARRSKDH
modifications: N-terminal alanine added

Columns and labels:
B. cinerea [1] = test: Semi-in planta drop inoculation assay on detached leaves of N. benthamiana, gray mold (Example 4); type: in vivo
Botrytis cinerea T-4 = settings: for MIC (μM) SFM: Table 18, SFM; for MIC (μM) (SFM + 2 mM CaCl2): Table 18, SFM + 2 mM CaCl2; for MIC (μM) (SFM + 100 mM KCl): Table 18, SFM + 100 mM KCl; for MIC (μM) (SFM + 100 mM NaCl): Table 18, SFM + 100 mM NaCl
B. cinerea [2] = system: B. cinerea
[3] = system: Fusarium graminearum PH-1; type: cell-based; settings: MIC Day 1; 96-well plate, resazurin cell viability
[4] = system: Zymoseptoria tritici IPO323; type: cell-based
Botrytis cinerea T4 = type: cell-based

| Molecule | F. graminearum PH-1 MIC Day1 [3] [µM] | Z. tritici IPO323 MIC Day 1 [4] [µM] | Z. tritici IPO323 MIC Day 7 [4] [µM] | Z. tritici IPO323 MIC Day 14 [4] [µM] | B. cinerea T4 MIC Day1 (Botrytis cinerea T4) [µM] | further results |
| --- | --- | --- | --- | --- | --- | --- |
| CC[C@H](C)[C@H](NC(=O)[C@H](CCCNC(=N)N)NC(=O)[C@H](CS)NC(=O)[C@H](CCCNC(=N)N)NC(=O)CNC(=O)[C@@H](N)CO)C(=O)N[C@@H](CC(C)C)C(=O)N[C@@H](Cc1ccccc1)C(=O)N[C@@H](CCCNC(=N)N)C(=O)N[C@@H](CS)C(=O)N[C@@H](Cc1ccccc1)C(=O)N[C@@H](CS)C(=O)N[C@H](C(=O)N[C@@H](CCCCN)C(=O)N[C@@H](CC(N)=O)C(=O)N[C@@H](CS)C(N)=O)[C@@H](C)O [GMA1C_V1] (H-SGRCRILFRCFCTKNC-NH2; N-terminus assumed) | – | – | – | – | – | Reduction of gray mold symptoms at 3 and 6 μM (B. cinerea [1]; drop inoculation assay, peptide 3 μM and 6 μM): failed to reduce disease symptoms |
| CC[C@H](C)[C@@H]1NC(=O)[C@H](CCCNC(=N)N)NC(=O)[C@@H](NC(=O)[C@H](CCCNC(=N)N)NC(=O)CNC(=O)[C@@H](N)CO)CSSC[C@@H](C(N)=O)NC(=O)[C@H](CC(N)=O)NC(=O)[C@H](CCCCN)NC(=O)[C@H]([C@@H](C)O)NC(=O)[C@H](Cc2ccccc2)NC(=O)[C@H](Cc2ccc(O)cc2)NC(=O)[C@H](Cc2c[nH]c3ccccc23)NC(=O)[C@H](CCCNC(=N)N)NC(=O)[C@H](Cc2ccccc2)NC(=O)[C@H](CC(C)C)NC1=O [GMA1C_V3] (H-SGRCRILFRWYFTKNC-NH2; disulfide 4-16; N-terminus assumed) | – | – | – | – | – | MIC (μM) SFM (Botrytis cinerea T-4): 1.5 µM (≈ 3.07 µg/mL); MIC (μM) (SFM + 2 mM CaCl2) (Botrytis cinerea T-4): 6 µM; MIC (μM) (SFM + 100 mM KCl) (Botrytis cinerea T-4): >12 µM; MIC (μM) (SFM + 100 mM NaCl) (Botrytis cinerea T-4): 3 µM |
| C[C@@H](O)[C@H](NC(=O)[C@H](CS)NC(=O)[C@H](Cc1ccccc1)NC(=O)[C@H](CS)NC(=O)[C@H](CCCNC(=N)N)NC(=O)[C@H](CCCNC(=N)N)NC(=O)[C@H](CCCNC(=N)N)NC(=O)[C@H](Cc1ccccc1)NC(=O)CNC(=O)[C@H](CCCNC(=N)N)NC(=O)[C@H](CS)NC(=O)[C@H](CCCNC(=N)N)NC(=O)CN)C(=O)N[C@H](C(=O)N[C@@H](Cc1c[nH]cn1)C(=O)N[C@@H](CS)C(N)=O)[C@@H](C)O [GMA4AC] (H-GRCRGFRRRCFCTTHC-NH2; N-terminus and C-terminus assumed) | – | – | – | – | – | MIC (μM) Fusarium graminearum (F. graminearum): 6 µM (≈ 11.8 µg/mL) |
| NCC[C@H](NC(=O)CNC(=O)[C@@H](N)Cc1ccccc1)C(=O)N[C@@H](CS)C(=O)N[C@@H](CCN)C(=O)NCC(=O)N[C@@H](Cc1ccccc1)C(=O)N[C@@H](CCN)C(=O)N[C@@H](CCN)C(=O)N[C@@H](CCN)C(=O)N[C@@H](CS)C(=O)N[C@@H](Cc1ccccc1)C(=O)N[C@@H](CS)C(=O)N[C@@H](Cc1c[nH]c2ccccc12)C(=O)N[C@@H](CCN)C(=O)N[C@@H](Cc1c[nH]c2ccccc12)C(=O)N[C@@H](CS)C(=O)O [GMA4C_V5, FG(Dab)C(Dab)GF(Dab)(Dab)(Dab)CFCW(Dab)WC] (H-FG[Dab]C[Dab]GF[Dab][Dab][Dab]CFCW[Dab]WC-OH; N-terminus assumed) | – | – | – | – | – | SFM + 2 mM CaCl2 MIC (B. cinerea [2]; Table 4, B. cinerea, SFM + 2 mM CaCl2): >6 (very μM; SFM + 2 mM CaCl2 MIC (B. cinerea [2]; Table 10, SFM + 2 mM CaCl2, values repeat Table 4 (B. cinerea)): >6 (very μM |
| CC[C@H](C)[C@H](NC(=O)[C@H](CCCNC(=N)N)NC(=O)[C@@H](NC(=O)[C@H](Cc1c[nH]c2ccccc12)NC(=O)[C@H](Cc1ccccc1)NC(=O)[C@H](Cc1c[nH]c2ccccc12)NC(=O)[C@H](CCCNC(=N)N)NC(=O)[C@H](CCCNC(=N)N)NC(=O)[C@H](CCCNC(=N)N)NC(=O)[C@H](Cc1ccccc1)NC(=O)CNC(=O)[C@H](CCCCN)NC(=O)[C@H](CS)NC(=O)[C@H](CCCNC(=N)N)NC(=O)CNC(=O)CN)[C@@H](C)O)C(=O)N[C@@H](CS)C(N)=O [GMA4C_V6A] (H-GGRCKGFRRRWFWTRIC-NH2; N-terminus assumed) | – | – | – | – | – | B. cinerea MIC (B. cinerea [2]): 0.75 µM; MIC (μM) Botrytis cinerea (B. cinerea [2]): 0.75 µM (≈ 1.64 µg/mL); MIC Values (μM) against B. cinerea (B. cinerea [2]): 0.75 µM (≈ 1.64 µg/mL); SFM + 2 mM CaCl2 MIC (B. cinerea [2]): 3 to 6 µM; SFM + 100 mM KCl MIC (B. cinerea [2]): 1.5 to 3 µM; SFM + 100 mM NaCl MIC (B. cinerea [2]): 0.75 to 1.5 µM; SFM MIC (B. cinerea [2]): 1.5 µM; Antifungal activity relative to the wild-type GMA4C_AC control (B. cinerea [2]; in vitro, low cationic conditions, B. cinerea): four-fold increase |
| CC(C)C[C@@H]1NC(=O)[C@@H](NC(=O)[C@H](C)NC(=O)CN)CSSC[C@@H](C(=O)N[C@@H](Cc2ccc(O)cc2)C(N)=O)NC(=O)[C@H](Cc2c[nH]cn2)NC(=O)[C@H](CCCNC(=N)N)NC(=O)[C@H](Cc2ccc(O)cc2)NC(=O)[C@H](Cc2ccc(O)cc2)NC(=O)[C@H](Cc2c[nH]c3ccccc23)NC(=O)[C@H](Cc2ccccc2)NC(=O)[C@H](Cc2ccccc2)NC(=O)CNC(=O)[C@H](Cc2ccc(O)cc2)NC(=O)[C@H](Cc2c[nH]cn2)NC(=O)[C@H](CCCCN)NC(=O)[C@H](CO)NC(=O)[C@H](Cc2c[nH]cn2)NC(=O)[C@H](CCCNC(=N)N)NC(=O)[C@H](CC(N)=O)NC(=O)[C@H](CCCCN)NC1=O [GMAOe1C_V4] (H-GACLKNRHSKHYGFFWYYRHCY-NH2; disulfide 3-21; N-terminus assumed) | – | – | – | – | – | MIC (μM) SFM (Botrytis cinerea T-4): 1.5 µM (≈ 4.25 µg/mL); MIC (μM) (SFM + 2 mM CaCl2) (Botrytis cinerea T-4): 6 to 12 µM; MIC (μM) (SFM + 100 mM KCl) (Botrytis cinerea T-4): 6 to 12 µM; MIC (μM) (SFM + 100 mM NaCl) (Botrytis cinerea T-4): 6 µM |
| CC(C)C[C@H](NC(=O)[C@H](CS)NC(=O)[C@H](C)NC(=O)CN)C(=O)N[C@@H](CCCCN)C(=O)N[C@@H](CC(N)=O)C(=O)N[C@@H](CCCNC(=N)N)C(=O)N[C@@H](Cc1c[nH]cn1)C(=O)N[C@@H](CO)C(=O)N[C@@H](CCCCN)C(=O)N[C@@H](Cc1c[nH]cn1)C(=O)N[C@@H](Cc1ccc(O)cc1)C(=O)NCC(=O)N[C@@H](CS)C(=O)N[C@@H](Cc1ccc(O)cc1)C(=O)N[C@@H](CS)C(=O)N[C@@H](Cc1ccc(O)cc1)C(=O)N[C@@H](Cc1ccc(O)cc1)C(=O)N[C@@H](CCCNC(=N)N)C(=O)N[C@@H](Cc1c[nH]cn1)C(=O)N[C@@H](CS)C(=O)N[C@@H](Cc1ccc(O)cc1)C(N)=O [GMAOe1C_WT] (H-GACLKNRHSKHYGCYCYYRHCY-NH2; N-terminus assumed) | – | – | – | – | – | Reduction of gray mold disease symptoms (lesion sizes) (B. cinerea [1]; detached N. benthamiana leaves, peptide 1.5, 3 and 6 μM, 48 h after inoculation): only effective at 6 μM |
| PD125.1.1: wild-type defensin-like protein SEQ ID NO: 728 with N-terminal alanine, expressed in Pichia pastoris (VICPLESKRSKTWSGVCAQSKNCDKQCKTWERAKHGACHATYGKVLGVKACMHAGNK; N-terminal alanine added; listed as Prunus armeniaca) | 8 | 3 | 7 | 9 | 10 | – |
| PD126.1.1: wild-type defensin-like protein SEQ ID NO: 730 with N-terminal alanine, expressed in Pichia pastoris (KLCERRSKTWTGWCAKTSHCNKQCKDWERVEHGACHGEFLEKPVSAISNAHCKISF; N-terminal alanine added; listed as Prunus armeniaca) | >12 | >12 | >12 | >12 | >12 | – |
| PD128.1.1: wild-type defensin-like protein SEQ ID NO: 734 with N-terminal alanine, expressed in Pichia pastoris (RVCLRRSKTWTGFCGNTRGFDSQCKRWECALHGACHC; N-terminal alanine added; listed as Lepidium sativum) | >12 | 3 | 7 | 8 | 3 | – |
| B1 | >12 | 6 | >6 | >6 | >12 | – |
| B2 | 1.5 | 0.75 | 1.5 | 1.5 | 1.25 | MIC against Z. tritici on day 1 [4]: 0.75 µM; MIC against Z. tritici on day 7 [4]: 1.5 µM; MIC against Z. tritici on day 14 [4]: 1.5 µM |
| B3 | >12 | >12 | >12 | >12 | >12 | – |
